According to patent publication US12059418B2, “Plasmodial surface anion channel inhibitors for the treatment or prevention of malaria” (The United States of America, as represented by the …, priority 2011, dated 2024):
“Also recorded” adds a separate entry of the source.

Key:
PSAC [1] = assay: Transport inhibition assay, osmotic lysis of infected cells in sorbitol (Table 5); assay type: cell-based, P. falciparum
P. falciparum [2] = assay: microbe, parasite or virus in culture; assay type: cell-based; details: for IC50: Plasmodium falciparum, 72 h; for IC50 ratio: RPMI growth IC50 / PLM growth IC50
PSAC [3] = assay: K0.5 for PSAC block, light-scattering osmotic lysis assay in sorbitol (Example 1); assay type: cell-based, P. falciparum; details: for K0.5 for PSAC block: concentration producing 50% block of PSAC-mediated solute uptake; for IC50: read-out: K0.5 for PSAC block, concentration producing 50% block of PSAC-mediated solute uptake
Excerpt: The chemical inhibitors included:
In this assay, increases in transmittance (% T, measured at 700 nm) correlated directly to lysis of infected RBCs and were plotted in arbitrary units. Uninfected RBCs lacked PSAC activity and had undetectably low sorbitol permeability.

P. falciparum [4] = assay: In vitro parasite killing, SYBR Green I fluorescence assay in RPMI 1640 or PLM (Example 1); assay type: cell-based; details: for IC50: Plasmodium falciparum, 72 h; for Ratio (RPMI/PLM): ratio of IC50 RPMI/PLM
Method: In vitro parasite killing by PSAC inhibitors was quantified using a SYBR Green I-based fluorescence assay for parasite nucleic acid in 96-well format.
Cultures were maintained for 3 days at 37° C. in 5% 02, 5% CO2 without media change. After this incubation, Sybr Green I was added in 20 mM Tris, 10 mM EDTA, 0.016% saponin, 1.6% triton X100.

[5] = Mammalian cytotoxicity, MTS viability; assay type: cell-based, human; details: human, HeLa cells; 72 h, MTS; read-out: HeLa cell CC50
Method: (§1) Cytotoxicity of PSAC inhibitors was measured with human HeLa cells (ATCC # CLL-2) in 96-well plates at 4000 cells/well. Cultures were incubated with each inhibitor at 37° C. for 72 h in Minimal Essential Medium (Gibco/Invitrogen, Carlsbad, Calif.) supplemented with 10% fetal calf serum. Cell viability was quantified using the vital stain MTS [3-(4,5-dimethylthiazol-2-yl)-5-(3-carboxymethonyphenol)-2-(4-sulfophenyl)-2H-tetrazolium, inner salt], as described (Marshall et al., Growth Regul., 5: 69-84 (1995)). The reported CC50 value is the concentration of an inhibitor that reduces conversion of MTS to formazan by 50%.

human HeLa cells = assay: Mammalian cytotoxicity, MTS viability; assay type: cell-based
Method: as §1

[6] = 37° C., read-out: Transport inhibition K0.5
[7] = PSAC-limiting medium (PLM), 3 days, read-out: PLM IC50
[8] = RPMI 1640 standard media, 3 days, read-out: RPMI IC50

Row | SMILES | IC50 (PSAC [1]; [6]) | IC50 (P. falciparum [2]; read-out: PLM growth IC50) | IC50 (P. falciparum [2]; read-out: RPMI growth IC50) | IC50 ratio (P. falciparum [2]) | CC50 at 72 h [5] | specificity (HeLa CC50/parasite PLM IC50) (human HeLa cells) | further results
1 | O=C1N=C(N2CCCC2)S/C1=C/c1cccc(Cl)c1 [Cpd 80] | 44 nM | 170 nM | 12500 nM | 130 |  |  | 
2 | C[C@@H]1CC[C@H]2[C@@H](C)C(=O)O[C@@H]3O[C@@]4(C)CC[C@@H]1[C@]32OO4 [artemisinin] |  |  |  | 0.66 |  |  | K0.5 for PSAC block (PSAC [3]): did not inhibit PSAC activity; K0.5 for PSAC block (PSAC [3]; listed as Artemisinin): inactive; IC50 (P. falciparum [4]; [7]): 26 nM; IC50 (P. falciparum [4]; [8]): 18 nM; Ratio (RPMI/PLM) (P. falciparum [4]): 0.66; Transport inhibition K0.5 (PSAC [1]; 37° C.): do not inhibit PSAC-mediated solute uptake; also recorded: inactive
3 | CCc1nn2c(=O)cc(CSc3nc4ccc(NC(=O)c5cccs5)cc4s3)nc2s1 [Compound of formula (2a)] |  |  |  |  |  |  | IC50 (PSAC [3]): 10 nM; IC50 (P. falciparum [4]; [7]): 300 nM; IC50 (P. falciparum [4]; [8]): > 30000 nM; Ratio (RPMI/PLM) (P. falciparum [4]): >100
4 | COc1ccc2cc3cc(C(=O)N(C)C4CCCCC4)oc3nc2c1 [(25)] | 33 nM | 170 nM | 15000 nM | 86 |  |  | 
5 | COc1ccc(NC(=O)c2cc3cc4ccc(C)cc4nc3o2)cc1 [(280)] |  | 230 nM | 18000 nM | 270 | > 100000 nM | >430 | IC50 (PSAC [1]; read-out: Transport inhibition K0.5, 37° C.): 6 nM
6 | NS(=O)(=O)c1cc(C(=O)O)c(NCc2ccco2)cc1Cl [furosemide, reference compound] |  | 21000 nM | > 200000 nM |  |  |  | 
7 | OC(c1cc(C(F)(F)F)nc2c(C(F)(F)F)cccc12)C1CCCCN1 (centres unmarked) [mefloquine] |  |  |  | 0.66 |  |  | K0.5 for PSAC block (PSAC [3]): did not inhibit PSAC activity; K0.5 for PSAC block (PSAC [3]; listed as Mefloquine): inactive; IC50 (P. falciparum [4]; [7]): 33 nM; IC50 (P. falciparum [4]; [8]): 22 nM; Ratio (RPMI/PLM) (P. falciparum [4]): 0.66; Transport inhibition K0.5 (PSAC [1]; 37° C.): do not inhibit PSAC-mediated solute uptake; also recorded: inactive
8 | Cc1ccc(C)c(N2CCN(S(=O)(=O)c3ccc(-c4ccc(=O)[nH]n4)s3)CC2)c1 [Compound of formula (1a)] |  |  |  |  |  |  | IC50 (PSAC [3]): 3 nM; IC50 (P. falciparum [4]; [7]): 2.3 nM; IC50 (P. falciparum [4]; [8]): 1500 nM; Ratio (RPMI/PLM) (P. falciparum [4]): 800
9 | O=C1Nc2cc(C(=O)N3CCN(c4ccccc4)CC3)ccc2Sc2ccccc21 [(3) (TP-52)] | 25 nM | 190 nM | 7300 nM | 38 | > 100000 nM | >530 | 
10 | O=C1CN(/N=C/c2ccc(-c3ccc([N+](=O)[O-])cc3)o2)C(=O)N1 [dantrolene, reference compound] | 1200 nM | 3800 nM | 42000 nM | 18 |  |  | 
11 | CC1=Nc2ccc(C)cc2C1/C=C1/C(=N)N2N=C(S(=O)(=O)CC(C)C)SC2=NC1=O (centres unmarked) [Cpd 50] | 81 nM | 2000 nM | > 30000 nM | >15 | > 100000 nM | >50 | 
12 | Cc1ccc(C)c(N2CCN(S(=O)(=O)c3ccc(-c4ccc(=O)[nH]n4)s3)CC2)c1 [ISG-21] | 2.6 nM | 2 nM |  | 800 | 86000 nM | 43,000 | 
13 | CCCCN(CC)C(=O)c1cc2cc3ccc(C)cc3nc2o1 [(24)] | 87 nM | 270 nM | 23000 nM | 114 | 30000 nM | 110 | 
14 | CCN(Cc1ccccc1)C(=O)c1ccc2c(c1)NC(=O)c1ccccc1S2 [(31)] | 84 nM | 410 nM | 4700 nM | 15 | > 100000 nM | >240 | 
15 | CCN(CC)CCCC(C)Nc1ccnc2cc(Cl)ccc12 (centres unmarked) [chloroquine, reference compound] |  | 340 nM | 220 nM |  |  |  | K0.5 for PSAC block (PSAC [3]): did not inhibit PSAC activity; IC50 (P. falciparum [4]; read-out: PLM IC50): 340 nM; IC50 (P. falciparum [4]; read-out: RPMI IC50): 220 nM; Transport inhibition K0.5 (PSAC [1]; 37° C.): do not inhibit PSAC-mediated solute uptake; also recorded: inactive
